From PMC7018803, “A randomized, placebo-controlled, phase 1 study to evaluate the effects of TAK-063 on ketamine-induced changes in fMRI BOLD signal in healthy subjects” (Psychopharmacology, 2019)

How the values were obtained:
healthy male subjects [1] = experiment: Resting state fMRI BOLD signal before ketamine infusion; type: in vivo, human; conditions: 3-30 mg
Experimental: (§1) Subjects checked in on day − 1 of each treatment period during which vital signs, electrocardiogram (ECG), and laboratory safety tests were repeated. On day 1 of each treatment period, subjects received a 3-, 10-, or 30-mg TAK-063 dose or placebo tablets. Participants then relaxed, slept, or watched movies while remaining in the research environment. Ketamine (0.12 mg/kg intravenous bolus over 60 s followed by a continuous infusion of 0.31 mg/kg/h over approximately 150 min) was administered 4 h after TAK-063 or placebo (Fig. 1). This ketamine dose was based on a previous study that achieved steady-state concentrations of 75 ng/mL and provided a robust BOLD signal with minimal psychotomimetic symptoms (De Simoni et al. [2013]).
The scanning protocol for the current study was very comprehensive and included multiple MR approaches. This publication reports the BOLD fMRI data for the working memory task, but also resting state fMRI. The magnetic scanning portion of the neuroimaging test battery was initiated 20 min before ketamine dosing. Imaging was performed using a 3 Tesla Siemens Trio scanner. The MR scanning protocol was initiated 20 min before ketamine dosing; prior to scanning, a structural magnetization prepared rapid gradient echo (MPRAGE) scan was collected. […]

healthy male subjects [2] = experiment: Ketamine-induced changes in fMRI BOLD signal during working memory task (AX-CPT); type: in vivo, human
Experimental: as §1
The scanning protocol for the current study was very comprehensive and included multiple MR approaches. This publication reports the BOLD fMRI data for the working memory task, but also resting state fMRI. The magnetic scanning portion of the neuroimaging test battery was initiated 20 min before ketamine dosing. Imaging was performed using a 3 Tesla Siemens Trio scanner. The MR scanning protocol was initiated 20 min before ketamine dosing; prior to scanning, a structural magnetization prepared rapid gradient echo (MPRAGE) scan was collected. As part of the scanning protocol, each subject received 20 min of scanning − 10 min arterial spin labeling (ASL) plus 10 min resting BOLD prior to ketamine infusion. After ketamine infusion, the resting state fMRI BOLD acquisition continued for an additional 10 min. Next, a Spatial Working Memory task-induced fMRI BOLD acquisition was performed for 15 min. Following these BOLD acquisitions, another 10 min ASL scan was acquired and a 10-min T1 relaxometry scan was conducted. The MR scanning sequence ended with a 5-min MPRAGE acquisition. […]
The functional imaging analyses for the working memory task was performed using SPM8 (Wellcome Department of Cognitive Neurology, London, UK). […] Data from each subject for each task were analyzed with a fixed box-car function convolved with a model hemodynamic response function. […]

rats = system: rats; design: method as in Suzuki et al. [2016]; conditions: ref Suzuki et al. [2016]; cited from earlier work
anesthetized rats = system: anesthetized rats; design: method as in Tomimatsu et al. [2016]; conditions: ref Tomimatsu et al. [2016], cited from earlier work
[3] = system: phosphodiesterase 10A (PDE10A); design: method as in Seeger et al. [2003]; Suzuki et al. [2015]; conditions: ref Seeger et al. [2003]; Suzuki et al. [2015]; cited from earlier work

COc1cn(-c2ccc(-n3cccn3)cc2F)nc(-c2ccnn2-c2ccccc2)c1=O [TAK-063]
effects on fMRI BOLD signal during the resting state before ketamine infusion (healthy male subjects [1]): region-specific effects | effect size in right substantia nigra, left thalamus and left ventrolateral prefrontal cortex (healthy male subjects [2]; 10 mg, working memory task, small non-negative effects): < 0.15 | effect in left amygdala (healthy male subjects [2]; 30 mg, working memory task): small non-negative effect | effect on Cohen's effect size for fMRI BOLD signal during working memory task (healthy male subjects [2]; across all doses): decreased the Cohen’s effect size for fMRI BOLD signal in many brain regions | MK-801-induced effects on hyperactivity (rats): reversed | ketamine-induced increases in percent BOLD signal change in cortical regions (anesthetized rats; anesthetized rats, hippocampus, cingulate and retrosplenial cortex): reduced | percent BOLD signal change during the resting state in caudate putamen and substantia nigra (anesthetized rats; rat): increased | PDE10A inhibition [3]: selective inhibitor
